One assay addresses T1, Human recombinant MMP-1 (Homo sapiens, UniProt P03956).
T1 construct: made in house; host or cells: MMP-1-transfected HT-1080 cells (spent media)
T1 sequence (P03956 100-469): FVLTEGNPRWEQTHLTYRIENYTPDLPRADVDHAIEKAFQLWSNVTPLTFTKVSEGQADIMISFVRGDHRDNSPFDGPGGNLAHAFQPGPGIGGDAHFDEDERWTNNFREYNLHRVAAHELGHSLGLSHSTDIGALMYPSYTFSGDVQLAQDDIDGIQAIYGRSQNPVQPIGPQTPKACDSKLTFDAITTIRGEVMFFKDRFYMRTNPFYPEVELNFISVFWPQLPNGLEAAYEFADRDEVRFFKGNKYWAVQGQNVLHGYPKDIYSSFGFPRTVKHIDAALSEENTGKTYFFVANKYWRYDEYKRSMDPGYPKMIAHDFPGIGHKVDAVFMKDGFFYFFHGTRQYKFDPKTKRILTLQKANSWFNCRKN
The assay can be described thus: In vitro MMP inhibition, IC50 determination (fluorogenic substrate I). The format is biochemical. In a few lines:
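Inhibitor dilutions were made in 100 mM Tris-HCl/100 mM NaCl/10 mM CaCl2 buffer, pH 7.5, and incubated at room temperature with activated proenzyme (from transfected HT-1080 media; APMA or trypsin) and 4 μM quenched methoxycoumarin peptide substrate. Loss of 415 nm fluorescence (328 nm excitation) against concentration gave IC50.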

For the next assay, the target named is T2, Human recombinant MMP-2 (Homo sapiens, UniProt P08253).
T2 construct: made in house; host or cells: MMP-2-transfected p2AHT2 cells
T2 sequence (P08253 110-660): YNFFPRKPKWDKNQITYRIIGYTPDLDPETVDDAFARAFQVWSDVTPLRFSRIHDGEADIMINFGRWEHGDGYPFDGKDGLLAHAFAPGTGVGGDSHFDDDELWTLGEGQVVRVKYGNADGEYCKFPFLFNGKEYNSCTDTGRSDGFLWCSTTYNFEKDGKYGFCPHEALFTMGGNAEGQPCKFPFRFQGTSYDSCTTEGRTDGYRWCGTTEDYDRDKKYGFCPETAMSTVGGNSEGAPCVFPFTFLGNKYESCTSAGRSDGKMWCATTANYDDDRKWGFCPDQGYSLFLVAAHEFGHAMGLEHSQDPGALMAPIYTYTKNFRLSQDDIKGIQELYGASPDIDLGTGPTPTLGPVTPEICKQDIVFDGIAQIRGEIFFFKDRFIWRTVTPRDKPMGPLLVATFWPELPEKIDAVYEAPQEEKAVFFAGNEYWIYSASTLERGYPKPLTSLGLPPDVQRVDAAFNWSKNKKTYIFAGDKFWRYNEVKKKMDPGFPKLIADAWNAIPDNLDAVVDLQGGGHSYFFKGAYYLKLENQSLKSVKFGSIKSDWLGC
The assay is described as above. The format is biochemical. Summed up: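 IC50 was derived from the concentration-dependent fall in fluorescence (ex 328, em 415 nm) on Gly-Leu cleavage of 4 μM MCA/Dpa-quenched substrate I. Assays ran at room temperature in pH 7.5 Tris/NaCl/CaCl2/Brij buffer with MMP-2 activated by trypsin or APMA; inhibitors were diluted from 1% DMSO stocks.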

Setting [1] is: substrate (I) 4 μM, room temperature, values not in parenthesis.

Counter-ions that a name gives are not always drawn. Bounds are passed on as bounds.

As to `O=C(NO)C1(S(=O)(=O)c2ccc(OCCCc3nc(-c4ccc(OC(F)(F)F)cc4)no3)cc2)CCOCC1` [Example 31, tetrahydro-N-hydroxy-4-[[4-[3-[3[4-(trifluoromethoxy)phenyl]-1,2,4-oxadiazol-5-yl]propoxy]phenyl]sulfonyl]-2H-pyran-4-carboxamide], the results for the IC50 at Human recombinant MMP-1 (setting [1]) and at Human recombinant MMP-2 (setting [1]) were > 10 µM and 346 nM, respectively. As for `O=C(NO)C1(S(=O)(=O)c2ccc(OCCCc3cccc(-c4ccc(F)cc4)c3)cc2)CCOCC1` [Example 39], the IC50 at Human recombinant MMP-2 (setting [1]) is 1300 nM.

Take `O=C(NO)C1(S(=O)(=O)c2ccc(OCCc3cccc(-c4ccccn4)c3)cc2)CCOCC1` [Example 40]: the half-inhibitory concentration (IC50) at Human recombinant MMP-1 (setting [1]) is > 10 µM; at Human recombinant MMP-2 (setting [1]) it was 112 nM. Taken in the same sequence, the figures for `CCN1CCC(C(=O)NO)(S(=O)(=O)c2ccc(OCCCc3nc(-c4ccc(OC(F)(F)F)cc4)no3)cc2)CC1` [Example 41, 1-ethyl-N-hydroxy 4-{[4-(3-{3-[4-(trifluoromethoxy)phenyl]-1,2,4-oxadiazol-5-yl}propoxy)phenyl]sulfonyl}piperidine-4-carboxamide Hydrochloride] were > 10 µM and 357 nM.

With `COCCN1CCC(C(=O)NO)(S(=O)(=O)c2ccc(OCCCc3nc(-c4ccc(OC(F)(F)F)cc4)no3)cc2)CC1` [Example 42], the IC50 at Human recombinant MMP-1 (setting [1]) is > 10 µM; on Human recombinant MMP-2 (setting [1]) it was 100 nM. Take `CCN1CCC(C(=O)NO)(S(=O)(=O)c2ccc(OCCCc3cccc(-c4ccccc4)c3)cc2)CC1` [Example 46]: the IC50 on Human recombinant MMP-1 (setting [1]) is > 10 µM; on Human recombinant MMP-2 (setting [1]), 321 nM. Take `COCCN1CCC(C(=O)NO)(S(=O)(=O)c2ccc(OCCCc3cc(-c4ccc(F)cc4F)cs3)cc2)CC1` [Example 47, 4-[(4-{3-[4-(2,4-difluorophenyl)thien-2-l]propoxy}phenyl)sulfonyl]-N-hydroxy-1-(2-methoxyethyl)piperidine-4-carboxamide Hydrochloride]: the half-inhibitory concentration (IC50) at Human recombinant MMP-2 (setting [1]) was 18.2 nM. Regarding `COCCN1CCC(C(=O)NO)(S(=O)(=O)c2ccc(OCCCn3nnc(-c4ccc(OC(F)(F)F)cc4)n3)cc2)CC1` [Example 48], the IC50 on Human recombinant MMP-1 (setting [1]) was > 10 µM; at Human recombinant MMP-2 (setting [1]), 105 nM. For `O=C(NO)C1(S(=O)(=O)c2ccc(OCCCn3nnc(-c4ccc(OC(F)(F)F)cc4)n3)cc2)CCN(C2CC2)CC1` [Example 49] the same measures were > 10 µM and 274 nM. Taken in the same sequence, the figures for `O=C(NO)C1(S(=O)(=O)c2ccc(OCCCc3nc(-c4ccc(OC(F)(F)F)cc4)no3)cc2)CCN(C2CC2)CC1` [Example 51, 1-cyclopropyl-N-hydroxy-4-{[4-(3-{3-[4-(trifluoromethoxy)phenyl]-1,2,4-oxadiazol-5-yl}propoxy)phenyl]sulfonyl}piperidine-4-carboxamide Hydrochloride] were > 10 µM and 252 nM. As for `O=C(NO)C1(S(=O)(=O)c2ccc(OCCCn3nnc(-c4ccc(OC(F)(F)F)cc4)n3)cc2)CCN(CC2CC2)CC1` [Example 53], the concentration for half-maximal inhibition (IC50) on Human recombinant MMP-1 (setting [1]) is > 10 µM; on Human recombinant MMP-2 (setting [1]) it was 384 nM. `NC(=O)c1cccc(OCCOc2ccc(S(=O)(=O)C3(C(=O)NO)CCOCC3)cc2)c1` [Example 54]: at Human recombinant MMP-2 (setting [1]), the IC50 stood at 35.5 nM. Turning to `CC(C)C(=O)c1cccc(CCCOc2ccc(S(=O)(=O)C3(C(=O)NO)CCOCC3)cc2)c1` [Example 95], the values for the IC50 at Human recombinant MMP-1 (value outside parenthesis) and on Human recombinant MMP-2 (value outside parenthesis) were > 10 µM and 91.4 nM, respectively. Turning to `O=C(NO)C1(S(=O)(=O)c2ccc(OCCCc3cccc(-c4ccco4)c3)cc2)CCOCC1` [Example 97], on Human recombinant MMP-2 (value outside parenthesis), the IC50 amounted to 185 nM.

For the molecule `O=C(NO)C1(S(=O)(=O)c2ccc(OCCCc3cccc(Cc4ccccc4)c3)cc2)CCOCC1` [Example 98], the IC50 on Human recombinant MMP-1 (value outside parenthesis) is > 10 µM; on Human recombinant MMP-2 (value outside parenthesis) it was 316 nM. For `O=C(NO)C1(S(=O)(=O)c2ccc(OCCc3cccc(-c4ccncc4)c3)cc2)CCOCC1` [Example 113] the same measures were > 10 µM and 20.3 nM. Taken in the same sequence, the figures for `O=C(NO)C1(S(=O)(=O)c2ccc(OCCc3cccc(-c4ccccc4F)c3)cc2)CCOCC1` [Example 115] were > 10 µM and 312 nM. Taken in the same sequence, the figures for `O=C(NO)C1(S(=O)(=O)c2ccc(OCCc3cccc(-c4ccc(F)cc4)c3)cc2)CCOCC1` [Example 123] were > 10 µM and 383 nM. `O=C(NO)C1(S(=O)(=O)c2ccc(OCCc3cccc(-c4cccnc4)c3)cc2)CCOCC1` [Example 125]: the 50% inhibitory concentration (IC50) was 2.94 µM on Human recombinant MMP-1 (value outside parenthesis) and 27.3 nM on Human recombinant MMP-2 (value outside parenthesis). Taken in the same sequence, the figures for `Cc1ccc(-c2cccc(CCOc3ccc(S(=O)(=O)C4(C(=O)NO)CCOCC4)cc3)c2)cc1` [Example 127] were > 10 µM and 1380 nM.

Take `O=C1Nc2ccc(-c3noc(CCCOc4ccc(S(=O)(=O)C5(C(=O)NO)CCN(C6CC6)CC5)cc4)n3)cc21` [Example 142]: the IC50 at Human recombinant MMP-2 (value outside parenthesis) came out at 58.6 nM. Consider `O=C(NO)C1(S(=O)(=O)c2ccc(OCCCc3cccc(-c4ccc(OC(F)(F)F)cc4)c3)cc2)CCOCC1` [Example 147], for which the concentration for half-maximal inhibition (IC50) on Human recombinant MMP-2 (value outside parenthesis) was determined as 4750 nM. For `O=C(NO)C1(S(=O)(=O)c2ccc(OCCCc3cccc(-c4ccccn4)c3)cc2)CCOCC1` [Example 148], the IC50 on Human recombinant MMP-2 (value outside parenthesis) came out at 272 nM. Same read-out and setting: the figure for `O=C(NO)C1(S(=O)(=O)c2ccc(OCCCc3cccc(-c4ccncc4)c3)cc2)CCOCC1` [Example 149] is 77.1 nM; for `O=C(NO)C1(S(=O)(=O)c2ccc(OCCCc3cccc(-c4ccccc4Cl)c3)cc2)CCOCC1` [Example 162] it is 1600 nM; for `Cc1ccccc1-c1cccc(CCCOc2ccc(S(=O)(=O)C3(C(=O)NO)CCOCC3)cc2)c1` [Example 164] it is 1070 nM. Still for that read-out and setting: the figure for `Cc1ccc(-c2cccc(CCCOc3ccc(S(=O)(=O)C4(C(=O)NO)CCOCC4)cc3)c2)cc1C` [Example 165] is 3400 nM. Take `O=C(NO)C1(S(=O)(=O)c2ccc(OCCCc3cncc(Br)c3)cc2)CCOCC1` [Example 522]: the IC50 on Human recombinant MMP-2 (value outside parentheses) was found to be 12.9 nM. Same read-out and setting: in the case of `O=C(COc1ccc(S(=O)(=O)C2(C(=O)NO)CCOCC2)cc1)c1cccc(-c2ccccc2)c1` [Example 563] it was 73.5 nM; in that of `O=C(CCCOc1ccc(S(=O)(=O)C2(C(=O)NO)CCOCC2)cc1)Nc1cccc(I)c1` [Example 570], 4.8 nM. On the same count and under the same terms, in the case of `O=C(NO)C1(S(=O)(=O)c2ccc(OCCCc3cccc(-n4ccnc4)c3)cc2)CCOCC1` [Example 574] it was 29.4 nM; in that of `O=C(NO)C1(S(=O)(=O)c2ccc(OCCCc3nc(-c4cccnc4)no3)cc2)CCOCC1` [Example 578], 20.5 nM; in that of `O=C(NO)C1(S(=O)(=O)c2ccc(OCCCc3nc(-c4ccccc4)no3)cc2)CCOCC1` [Example 584], 72.9 nM. On the same count and under the same terms, in the case of `O=C(NO)C1(S(=O)(=O)c2ccc(OCCCc3cccc(-c4ccc(C(F)(F)F)cc4)c3)cc2)CCOCC1` [Example 625] it was 3500 nM; in that of `O=C(NO)C1(S(=O)(=O)c2ccc(OCCCc3cccc(-c4ccc5c(c4)OCCO5)c3)cc2)CCOCC1` [Example 627], 2070 nM.

In the case of `O=C(NO)C1(S(=O)(=O)c2ccc(OCCCc3cccc(-c4ccc5ccccc5c4)c3)cc2)CCOCC1` [Example 629], the IC50 at Human recombinant MMP-2 (value outside parentheses) stood at 537 nM. `O=C(NO)C1(S(=O)(=O)c2ccc(OCCCc3cccc(-c4csc5ccccc45)c3)cc2)CCOCC1` [Example 631]: the IC50 at Human recombinant MMP-2 (value outside parentheses) is 2140 nM. Same read-out and setting: the figure for `O=C(NO)C1(S(=O)(=O)c2ccc(OCCCc3cccc(-c4cc5ccccc5s4)c3)cc2)CCOCC1` [Example 633] is 2830 nM; for `O=C(NO)C1(S(=O)(=O)c2ccc(OCCCc3cccc(-c4coc5ccccc45)c3)cc2)CCOCC1` [Example 634] it is 486 nM. Still for that read-out and setting: in the case of `C=Cc1ccc(-c2cccc(CCCOc3ccc(S(=O)(=O)C4(C(=O)NO)CCOCC4)cc3)c2)cc1` [Example 635] it was 2310 nM; in that of `O=C(NO)C1(S(=O)(=O)c2ccc(OCCCc3cccc(-c4ccccc4O)c3)cc2)CCOCC1` [Example 636], 195 nM. The same measure, in the same setting: the figure for `O=C(NO)C1(S(=O)(=O)c2ccc(OCCCc3cccc(-c4cccc5ccccc45)c3)cc2)CCOCC1` [Example 638] is 4400 nM; for `Cc1ccc(-c2cccc(CCCOc3ccc(S(=O)(=O)C4(C(=O)NO)CCOCC4)cc3)c2)s1` [Example 639] it is 247 nM.

The term IC50 denotes the point on the concentration scale where inhibition reaches its midpoint.

(Values after patent US20040024024A1, “Aromatic sulfone hydroxamates and their use as protease inhibitors” (priority 2001, published 2004).)
